Results reported in PMC3735166, “Comparative Studies on Acetylcholinesterase Characteristics between the Aphids, Sitobion avenae and Rhopalosiphum padi” (Journal of Insect Science, 2013).
Where a name gives a salt, the structure may show the parent alone. Read-outs that look alike come from different tables or passages of the source.

Legend:
[1] = target: T1, purified AChE from R. padi (Rhopalosiphum padi, UniProt Q6BCH8); assay: Substrate specificity and kinetic analysis of purified AChE from R. padi; type: biochemical; conditions: for Vmax ± SE / Km: compound as substrate, 30°C; for Km: read-out: Km ± SE
Experimental: (§1) Purification of AChE from both aphid species was performed by affinity chromatography using procainamide as the affinity ligand. The procedure used in this study was according to the method of Gao and Zhu ([2001]) with some modifications, as follows:
(§2) Step 1: Preparation of crude extract. About 1.0 g apterous adults were homogenized in 10 mL ice-cold 0.1 M phosphate buffer (pH 7.5), containing 0.2 M NaCl and 0.5 % (v/v) Triton X-100 and three protease inhibitors (1 mM EDTA-Na2, 1 µM leupeptin, and 10 µM PMSF). The homogenate was filtered through cheesecloth and then centrifuged at 41,000 g, 4°C for 1 h. The supernatant, after being filtered through glass wool, was used as crude extract.
(§3) Step 2: Chromatography on sephadex G-25. […] The fractions (5 ml each) were collected at the flow rate of 45 mL/h at 4°C. All the fractions containing the AChE activity were collected as the enzyme resource for the next step.
(§4) Step 3: Procainamide affinity chromatography and removal of procainamide and condensation. The procainamide-based AChE affinity column was made according to the instructions from the manufacturer. […] The collected AChE dialyzed against 0.05 M, pH 7.5 phosphate buffer three times for 3 h. The enzyme was stored at 4°C and used as the enzyme source.
(§5) AChE activities were determined according to the method of Ellman et al. ([1961]) modified by Gao ([1987]), using ATCh, PrTCh, MeTCh and BuTCh as substrates. The AChE activities were determined at 6 substrate concentrations from 0.15625 to 5 mM based on the reaction at 30°C for 15 min and the reaction was stopped by the addition of 900 µL, DTNB (0.125 mM) with 40% ethanol, then the optical density (OD) was measured at 412 nm by spectrophotometer (Lambda Bio 40).
(§6) All statistical tests were performed by using SAS computer program (USA). Values of Michalelis-Menten constants (Km) and maximal velocities (Vmax) for four substrates were calculated by Enzfitter software (Biosoft, http://www.biosoft.com/).

[2] = target: T1, purified AChE from R. padi; assay: as above; type: biochemical; conditions: substrate 15 mM
[3] = target: T2, crude extract AChE from R. padi (Rhopalosiphum padi, UniProt Q6BCH8); assay: Substrate specificity and kinetic analysis of crude extract AChE from R. padi; type: biochemical; conditions: compound as substrate, 30°C; for Km: read-out: Km ± SE
Experimental: as §2, §5, §6

[4] = target: T3, purified AChE from S. avenae (Sitobion avenae, UniProt Q66S75); assay: Substrate specificity and kinetic analysis of purified AChE from S. avenae; type: biochemical; conditions: for Vmax ± SE / Km: compound as substrate, 30°C; for Km: read-out: Km ± SE
T3 sequence (Q66S75 23-664): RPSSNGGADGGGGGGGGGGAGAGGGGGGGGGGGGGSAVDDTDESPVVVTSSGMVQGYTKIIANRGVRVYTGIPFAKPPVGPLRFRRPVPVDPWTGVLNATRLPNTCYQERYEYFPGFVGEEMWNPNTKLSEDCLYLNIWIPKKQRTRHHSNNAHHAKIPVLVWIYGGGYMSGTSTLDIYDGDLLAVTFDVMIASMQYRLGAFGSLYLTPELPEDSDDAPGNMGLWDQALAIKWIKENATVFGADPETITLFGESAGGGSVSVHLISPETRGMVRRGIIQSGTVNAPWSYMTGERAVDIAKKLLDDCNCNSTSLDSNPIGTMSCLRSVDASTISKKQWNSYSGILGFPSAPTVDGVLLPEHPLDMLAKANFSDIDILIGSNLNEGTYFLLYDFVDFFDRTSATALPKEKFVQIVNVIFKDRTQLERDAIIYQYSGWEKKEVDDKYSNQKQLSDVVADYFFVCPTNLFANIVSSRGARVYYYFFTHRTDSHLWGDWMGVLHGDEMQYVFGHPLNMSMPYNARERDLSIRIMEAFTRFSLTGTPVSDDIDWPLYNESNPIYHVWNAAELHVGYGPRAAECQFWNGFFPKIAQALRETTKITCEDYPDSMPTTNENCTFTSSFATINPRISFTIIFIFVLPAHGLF
Experimental: as §1, §2, §3, §4, §5, §6

[5] = target: T4, crude extract AChE from S. avenae (Sitobion avenae, UniProt Q66S75); assay: Substrate specificity and kinetic analysis of crude extract AChE from S. avenae; type: biochemical; conditions: compound as substrate, 30°C; for Km: read-out: Km ± SE
T4 sequence (Q66S75 23-664): T3 sequence (Q66S75 23-664)
Experimental: as §2, §5, §6

[6] = target: T4, crude extract AChE from S. avenae; assay: Inhibition of crude extract AChE from S. avenae (Ellman method, 5 min preincubation); type: biochemical; conditions: for I50 times higher in S. avenae than in R. padi: ratio of I50 values of Table 4
Experimental: as §2, §5
(§7) The value of median inhibition concentration (I50) for the inhibitors were calculated based on log (inhibitor concentration) vs. probit (percentage of inhibition) linear regression.

[7] = target: T1, purified AChE from R. padi; assay: Inhibition of purified AChE from R. padi (Ellman method, 5 min preincubation); type: biochemical; conditions: for inhibitory percentage of AChE specific activity: inhibitor 10 µM
Experimental: as §1, §2, §3, §4, §5, §7

[8] = target: T2, crude extract AChE from R. padi; assay: Inhibition of crude extract AChE from R. padi (Ellman method, 5 min preincubation); type: biochemical; conditions: for inhibitory percentage of AChE specific activity: inhibitor 10 µM
Experimental: as §2, §5, §7

[9] = target: T3, purified AChE from S. avenae; assay: Inhibition of purified AChE from S. avenae (Ellman method, 5 min preincubation); type: biochemical
Experimental: as §1, §2, §3, §4, §5, §7

[10] = target: T2, crude extract AChE from R. padi; conditions: comparison of the two aphid species; ref Lu and Gao 2009; cited from earlier work
S. avenae and R. padi = conditions: comparison of the two aphid species, ref Lu and Gao 2009, cited from earlier work
[11] = S. avenae, preincubation 5 min at 30°C, mean of three determinations, read-out: I50 ± SE (median inhibition concentration)
[12] = preincubation 5 min at 30°C, mean of three determinations, read-out: I50 ± SE (median inhibition concentration)

T1 sequence (Q6BCH8 18-652): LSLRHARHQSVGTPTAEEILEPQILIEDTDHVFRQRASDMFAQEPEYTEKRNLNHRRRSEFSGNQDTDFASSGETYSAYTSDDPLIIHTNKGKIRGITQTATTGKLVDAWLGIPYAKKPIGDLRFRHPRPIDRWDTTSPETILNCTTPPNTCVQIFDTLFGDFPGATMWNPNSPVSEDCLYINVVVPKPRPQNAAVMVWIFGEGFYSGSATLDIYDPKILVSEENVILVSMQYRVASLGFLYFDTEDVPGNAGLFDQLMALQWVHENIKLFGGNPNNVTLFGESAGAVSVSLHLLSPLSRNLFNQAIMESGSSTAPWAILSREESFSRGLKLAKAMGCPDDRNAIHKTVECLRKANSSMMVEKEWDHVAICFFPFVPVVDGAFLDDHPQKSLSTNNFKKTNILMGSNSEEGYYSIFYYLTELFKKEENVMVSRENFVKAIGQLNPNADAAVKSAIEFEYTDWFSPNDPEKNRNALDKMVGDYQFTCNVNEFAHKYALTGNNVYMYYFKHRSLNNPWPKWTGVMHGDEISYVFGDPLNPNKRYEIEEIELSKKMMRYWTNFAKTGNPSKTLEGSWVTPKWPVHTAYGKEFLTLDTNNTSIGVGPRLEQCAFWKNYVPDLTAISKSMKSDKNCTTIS
T2 sequence (Q6BCH8 18-652): as above

Structure (SMILES) | Vmax ± SE [1] [nmol/min/mg protein] | Km [1] [µM] | Vmax ± SE [3] [nmol/min/mg protein] | Km [3] [µM] | Vmax ± SE [4] [nmol/min/mg protein] | Km [4] [µM] | Vmax ± SE [5] [nmol/min/mg protein] | Km [5] [µM] | further results
CC(=O)SCC[N+](C)(C)C.[I-] [ATCh, Acetylthiocholine iodide] | 37.58 ± 1.01 | 2180 ± 130 | 1.27 ± 0.05 | 360 ± 50 | 152.75 ± 3.63 | 2280 ± 120 | 1.16 ± 0.11 | 650 ± 190 | substrate concentration at which substrate inhibition was observed [1]: > 10 mM; specific activity of purified AChE [2]: 20.3 nmol/min/mg; substrate concentration at which substrate inhibition was observed [4]: > 10 mM
C=CC[N+](C)(C)c1ccc(CCC(=O)CCc2ccc([N+](C)(C)CC=C)cc2)cc1.[Br-].[Br-] [BW284C51, 1,5-bis(4-allyldimethylammoniumphenyl)-pentan-3-one dibromide] | – | – | – | – | – | – | – | – | IC50 [6, 11]: 24.7 ± 4.9 µM; I50 times higher in S. avenae than in R. padi [6]: 2.5 times; inhibitory percentage of AChE specific activity [7]: > 80%; IC50 [7, 12]: 2.57 ± 0.34 µM; inhibitory percentage of AChE specific activity [8]: about 50%; IC50 [8, 12]: 9.7 ± 1 µM; inhibitory percentage of AChE specific activity ([9]; S. avenae, inhibitor 10 µM): > 80%; IC50 [9, 11]: 1 ± 0.13 µM; I50 fold lower in S. avenae than in R. padi ([9]; from I50 values of Table 5): 0.4 fold
CCCC(=O)SCC[N+](C)(C)C.[I-] [BuTCh, butyrylthiocholine iodide] | 2.17 ± 0.09 | 670 ± 80 | 4.12 ± 1.34 | 5340 ± 2790 | 9.09 ± 0.14 | 1690 ± 60 | 11.88 ± 3.88 | 15100 ± 6210 | –
CNC(=O)Oc1ccc2c(c1)[C@]1(C)CCN(C)[C@@H]1N2C [Eserine, eserine hemisulfate salt] | – | – | – | – | – | – | – | – | I50 times higher in S. avenae than in R. padi [6]: 4.1 times; inhibitory percentage of AChE specific activity [7]: more than 90%; inhibitory percentage of AChE specific activity [8]: about 50%
CC(=O)SC(C)C[N+](C)(C)C (stereo not drawn) [MeTCh, acetyl-(β-methyl) thiocholine] | 31.58 ± 1.03 | 2450 ± 170 | 1.10 ± 0.07 | 290 ± 80 | 118.32 ± 5.64 | 2230 ± 230 | 1.01 ± 0.10 | 400 ± 140 | substrate concentration at which substrate inhibition was observed [1]: > 10 mM; specific activity of purified AChE [2]: 17.7 nmol/min/mg; substrate concentration at which substrate inhibition was observed [4]: > 10 mM
Cc1nc(N(C)C)nc(OC(=O)N(C)C)c1C [Pirimicarb] | – | – | – | – | – | – | – | – | sensitivity of AChE to pirimicarb, R. padi versus S. avenae [10]: significantly higher in R. padi than in S. avenae; susceptibility / tolerance to pirimicarb in bioassays, S. avenae versus R. padi (S. avenae and R. padi): higher for S. avenae than for R. padi; susceptibility / tolerance to pirimicarb in bioassays, S. avenae versus R. padi (S. avenae and R. padi; listed as pirimicarb): R. padi was more susceptible than S. avenae
CCC(=O)SCC[N+](C)(C)C.[I-] [PrTCh, propionylthiocholine iodide] | 24.24 ± 0.30 | 850 ± 30 | 0.76 ± 0.03 | 180 ± 40 | 94.01 ± 4.41 | 930 ± 120 | 1.04 ± 0.15 | 570 ± 260 | –
